Experimental data as given in patent US8053573B2, “Monomer 5, 6-diphenyl-1.2.4-traizinic derivatives and the use thereof” (Pierre Fabre Dermo-Cosmetique, priority 2004, dated 2011).

Assays:
Format in all cases: physicochemical
[1] = Spectral characteristics: molar extinction coefficient and specific absorbance; conditions: ethyl acetate, 10 μg/ml; for Maximum specific absorbance UVA / Maximum specific absorbance UVB: A1cm^1%
Text: The calculation of the molar extinction coefficient (ε) is made from the Beer-Lambert law:
[formula] Wherein: A=absorbance I0=intensity of the incident light I=intensity of the transmitted light ε=molar extinction (or molar absorbance) coefficient in M^−1 cm^−1 l=path length in cm c=concentration in mol/l
The molar extinction coefficient can be expressed with respect to a given mass of the product. It thus makes it possible to be able to compare the coefficients of extinction between products for the same given quantity. This quantity is 1% by weight. The molar extinction coefficient thus becomes the specific absorbance (A1cm^1%).
[formula] Wherein: A1cm^1%=specific absorbance ε=molar extinction coefficient M=molar mass
The spectral characteristics of the compounds in comparison with commercial filters at a concentration of 10 μg/ml are summarized in tables 2-1 and 2-2.
Procedure: The products are dissolved in ethyl acetate to a concentration of 10 μg/ml. The spectra are measured using a dual-beam spectrophotometer (Varian CARY 50 Scan) between 290 nm and 400 nm.

[2] = Spectral distribution in UVA and UVB (290-400 nm); conditions: range from 290 nm to 400 nm
Text: The products tested are classified according to spectral distribution in UVA and UVB in a range from 290 nm to 400 nm.
It is possible to differentiate them according to their spectral distribution:
Products with a narrow spectrum: • Products absorbing in the range between 280 nm and 320 nm (UVB) • Products absorbing in the range between 320 nm and 400 nm (UVA) Products with a broad spectrum: • Products absorbing in UVB (280-320 nm) and UVA-II […] • Products covering UVB and UVA (280-400 nm).

[3] = Photostability in solution in a chemical solvent (Suntest CPS+); conditions: 25 μg deposited from methanol, absorbance vs non-irradiated control, in % (unit assumed); for Photostability at 10 MED mean: Suntest irradiation 10 MED; for Photostability at 20 MED mean: Suntest irradiation 20 MED
Text: A Suntest CPS+ (Atlas, Linsengenicht/Altenhasslan, Germany) was used. The Suntest makes it possible to reproduce the solar spectrum and thus to carry out exposures inside at any time without weather constraints.
The radiance of the solar simulator was carefully measured with a spectroradiometer (MSS 2044, Bielefeld, Germany). UVB and UVA intensities were 0.49 mW/cm^2 and 6.32 mW/cm^2, respectively. The MED value defined by COLIPA is 5.6 J/cm^2 in total UV (22). The UV total (UVA+UVB) accounts for 14.8% of the energy delivered by the lamp (power 460 W/m^2). An irradiation dose equivalent to 1 MED corresponds to 37.83 J/cm^2 (in total spectrum) delivered by the lamp.
The Suntest test duration is calculated using the following formula: t=H/E with: […]
The solutions of the compounds are prepared at a concentration of 500 μg/ml in methanol. 50 μl (25 μg) of each solution are deposited in a crystallizer, then irradiated in the Suntest at 5, 10 and/or 20 MED. A non-irradiated control is prepared (deposit of 50 μl of solution and addition of 2.450 ml of methanol). The solvent evaporates during irradiation and the products are taken up in 2.5 ml of methanol. After irradiation, the absorbance of each solution is measured with the UV-visible spectrophotometer (Varian CARY 50 Scan).

[4] = Spectral characteristics: molar extinction coefficient and specific absorbance; conditions: ethyl acetate, 10 μg/ml; for Maximum specific absorbance UVC: A1cm^1%
[5] = In vitro SPF in a chemical solvent (Diffey and Robson); conditions: ethyl acetate solution, 10 μg/ml, transmittance 290-400 nm
Protocol: The in vitro methods of determining the protective effectiveness of sun products consist of measuring by transmission spectrophotometry the absorption spectrum of the filter in solution or of the product applied on a substrate with the aim of simulating the surface of the skin. The effectiveness against UVB and/or UVA rays, or the effect on the cutaneous response, are then determined by calculation, taking into account or not the UV radiation action spectrum for the damage considered.
The Sayre/Agin and Diffey/Robson method, used since the 1990s, involves a comparative measurement, with the aid of an integrating-sphere spectroradiometer, of the transition from 290 nm to 400 nm in 5 nm steps, the sample being subjected to UV radiation from a stable known source covering the whole of the UV spectrum (unfiltered xenon).
Diffey and Robson evaluate the erythemal response by the following calculation:
[formula] E(λ)=spectral irradiation in W(m^−2) (nm^−1) at 40° N sun at 20° zenith angle ε=erythematous capacity
The Diffey and Robson formula makes it possible to determine SPF from the measurement of transmittance between 290 nm and 400 nm. Transmittance is measured in solution in ethyl acetate at a concentration of 10 μg/ml using a UV-visible spectrophotometer (Varian CARY 50 Scan).

SMILES: COc1ccc(-c2nnc(-c3ccc(C#N)cc3)nc2-c2ccc(OC)cc2)cc1 [JR107, 3-(4-cyanophenyl)-5,6-bis(4-methoxyphenyl)-1,2,4-triazine]
- Maximum specific absorbance UVA [1]: 498 at
- Maximum specific absorbance UVB [1]: 688 at
- Maximum molar extinction coefficient UVA [1]: 19600 M⁻¹ cm⁻¹
- Maximum molar extinction coefficient UVB [1]: 27100 at M^−1 cm^−1
- Wavelength of maximum molar extinction coefficient UVA [1]: at 350
- Wavelength of maximum molar extinction coefficient UVB [1]: 300
- Wavelength of maximum specific absorbance UVA [1]: 350
- Wavelength of maximum specific absorbance UVB [1]: 300
- Spectral distribution [2]: absorb in UVB and UVA
- Photostability at 10 MED mean [3]: 58.45
- Photostability at 20 MED mean [3]: 47.81
- Maximum specific absorbance UVC [4]: 655 at
- Maximum molar extinction coefficient UVC [4]: 25800 M⁻¹ cm⁻¹
- Wavelength of maximum molar extinction coefficient UVC [4]: at 270
- Wavelength of maximum specific absorbance UVC [4]: 270

SMILES: COc1ccc(-c2nnc(-c3cccc(C#N)c3)nc2-c2ccc(OC)cc2)cc1 [JR113, 3-(3-cyanophenyl)-5,6-bis(4-methoxyphenyl)-1,2,4-triazine]
- Maximum specific absorbance UVA [1]: 570
- Maximum specific absorbance UVB [1]: 721
- Maximum molar extinction coefficient UVA [1]: 22469 M⁻¹ cm⁻¹
- Maximum molar extinction coefficient UVB [1]: 28800 M⁻¹ cm⁻¹
- Wavelength of maximum molar extinction coefficient UVA [1]: at 340
- Wavelength of maximum molar extinction coefficient UVB [1]: at 295
- Wavelength of maximum specific absorbance UVA [1]: at 340
- Wavelength of maximum specific absorbance UVB [1]: at 295
- Spectral distribution [2]: absorb in UVB and UVA
- SPF [5]: 67.74
- Photostability at 10 MED mean [3]: 98.07
- Photostability at 20 MED mean [3]: 97.67

SMILES: COc1ccc(C(=O)CC(=O)c2ccc(C(C)(C)C)cc2)cc1 [Parsol 1789 ®, reference compound]
- Maximum specific absorbance UVA [1]: 1100
- Maximum molar extinction coefficient UVA [1]: 34100 M⁻¹ cm⁻¹
- Wavelength of maximum molar extinction coefficient UVA [1]: at 360
- Wavelength of maximum specific absorbance UVA [1]: at 360
- Spectral distribution [2]: only absorbs in UVA
- SPF [5]: 51.1
- Photostability at 10 MED mean [3]: 57.04
- Photostability at 20 MED mean [3]: 6.26
- Maximum specific absorbance UVC [4]: 278 at
- Maximum molar extinction coefficient UVC [4]: 8633 at M^−1 cm^−1
- Wavelength of maximum molar extinction coefficient UVC [4]: 275
- Wavelength of maximum specific absorbance UVC [4]: 275

SMILES: CCN(CC)c1ccc(-c2nnc(O)nc2-c2ccc(N(CC)CC)cc2)cc1 [JR18, 3-hydroxy-5,6-bis(4-diethylaminophenyl)-1,2,4-triazine]
- Photostability at 10 MED mean [3]: 82.86
- Photostability at 20 MED mean [3]: 57.37

SMILES: COc1ccc(-c2nnc(-c3ccc(OC)cc3)c(-c3ccc(OC)cc3)n2)cc1 [JR70, 3-(4-methoxyphenyl)-5,6-bis(4-methoxyphenyl)-1,2,4-triazine]
- Maximum specific absorbance UVB [1]: 982
- Maximum molar extinction coefficient UVB [1]: 29200 M⁻¹ cm⁻¹
- Wavelength of maximum molar extinction coefficient UVB [1]: at 310
- Wavelength of maximum specific absorbance UVB [1]: at 310
- Spectral distribution [2]: absorb in UVB
- Photostability at 10 MED mean [3]: 44.51
- Photostability at 20 MED mean [3]: 30.83

SMILES: COc1ccc(-c2nnc(-c3ccccc3C#N)nc2-c2ccc(OC)cc2)cc1 [JR114, 3-(2-cyanophenyl)-5,6-bis(4-methoxyphenyl)-1,2,4-triazine]
- Maximum specific absorbance UVA [1]: 661
- Maximum molar extinction coefficient UVA [1]: 26000 M⁻¹ cm⁻¹
- Wavelength of maximum molar extinction coefficient UVA [1]: at 325
- Wavelength of maximum specific absorbance UVA [1]: at 352
- Spectral distribution [2]: absorb in UVB and UVA
- Photostability at 10 MED mean [3]: 92.07
- Photostability at 20 MED mean [3]: 91.43

SMILES: Oc1ccccc1-c1nnc(-c2ccccc2)c(-c2ccccc2)n1 [JR67, 3-(2-hydroxyphenyl)-5,6-diphenyl-1,2,4-triazine]
- Maximum specific absorbance UVA [1]: 502
- Maximum molar extinction coefficient UVA [1]: 16300 M⁻¹ cm⁻¹
- Wavelength of maximum molar extinction coefficient UVA [1]: at 330
- Wavelength of maximum specific absorbance UVA [1]: at 330
- Maximum specific absorbance UVC [4]: 811
- Maximum molar extinction coefficient UVC [4]: 26300 M⁻¹ cm⁻¹
- Wavelength of maximum molar extinction coefficient UVC [4]: at 280
- Wavelength of maximum specific absorbance UVC [4]: at 280

SMILES: COc1ccc(-c2nnc(-c3cc(O)c(O)c(O)c3)nc2-c2ccc(OC)cc2)cc1 [JR115, 3-(3,4,5-hydroxyphenyl)-5,6-bis(4-methoxyphenyl)-1,2,4-triazine]
- Maximum specific absorbance UVB [1]: 747
- Maximum molar extinction coefficient UVB [1]: 34300 M⁻¹ cm⁻¹
- Wavelength of maximum molar extinction coefficient UVB [1]: at 310
- Wavelength of maximum specific absorbance UVB [1]: at 310
- Spectral distribution [2]: absorb in UVB (280-320 nm) and UVA-II (280-340 nm)
- Photostability at 10 MED mean [3]: 57.63
- Photostability at 20 MED mean [3]: 46.42

SMILES: COc1ccc(-c2nnc(-c3ccccc3O)nc2-c2ccc(OC)cc2)cc1 [JR89, 3-(2-hydroxyphenyl)-5,6-bis(4-methoxyphenyl)-1,2,4-triazine]
- Maximum specific absorbance UVA [1]: 526 at
- Maximum molar extinction coefficient UVA [1]: 20300 M⁻¹ cm⁻¹
- Wavelength of maximum molar extinction coefficient UVA [1]: at 335
- Wavelength of maximum specific absorbance UVA [1]: 335
- Spectral distribution [2]: absorb in UVB (280-320 nm) and UVA-II (280-340 nm)
- Photostability at 10 MED mean [3]: 97.39
- Photostability at 20 MED mean [3]: 98.72
- Maximum specific absorbance UVC [4]: 502
- Maximum molar extinction coefficient UVC [4]: 19300 M⁻¹ cm⁻¹
- Wavelength of maximum molar extinction coefficient UVC [4]: at 280
- Wavelength of maximum specific absorbance UVC [4]: at 280

SMILES: CC(C)(C)CC(C)(C)c1cc(Cc2cc(C(C)(C)CC(C)(C)C)cc(-n3nc4ccccc4n3)c2O)c(O)c(-n2nc3ccccc3n2)c1 [Tinosorb M ®, reference compound]
- Maximum specific absorbance UVA [1]: 552
- Maximum specific absorbance UVB [1]: 556
- Maximum molar extinction coefficient UVA [1]: 36400 M⁻¹ cm⁻¹
- Maximum molar extinction coefficient UVB [1]: 36600 M⁻¹ cm⁻¹
- Wavelength of maximum molar extinction coefficient UVA [1]: at 345
- Wavelength of maximum molar extinction coefficient UVB [1]: at 305
- Wavelength of maximum specific absorbance UVA [1]: at 345
- Wavelength of maximum specific absorbance UVB [1]: at 305
- Spectral distribution [2]: absorb in UVB and UVA
- SPF [5]: 54.07

SMILES: Oc1ccc(-c2nnc(-c3ccccc3)c(-c3ccccc3)n2)cc1 [JR68, 3-(4-hydroxyphenyl)-5,6-diphenyl-1,2,4-triazine]
- Maximum specific absorbance UVA [1]: 424
- Maximum molar extinction coefficient UVA [1]: 13800 M⁻¹ cm⁻¹
- Wavelength of maximum molar extinction coefficient UVA [1]: at 330
- Wavelength of maximum specific absorbance UVA [1]: at 330
- Spectral distribution [2]: absorb in UVB (280-320 nm) and UVA-II (280-340 nm)
- Photostability at 10 MED mean [3]: 98.2
- Photostability at 20 MED mean [3]: 95.33
- Maximum specific absorbance UVC [4]: 702
- Maximum molar extinction coefficient UVC [4]: 22800 M⁻¹ cm⁻¹
- Wavelength of maximum molar extinction coefficient UVC [4]: at 280
- Wavelength of maximum specific absorbance UVC [4]: at 280
